Measurements from paper PMC9549030, “Structural basis for specific inhibition of the deubiquitinase UCHL1” (Nature Communications, 2022).
Changes are numbered by the printed parent chain. Several values for one entry are separate records, joined by “and”; a condition that tells them apart may be missing. Equal entries are not always repeated.

Key:
UCHL3 A11I = molecular target: T1, UCHL3 A11I (Homo sapiens, UniProt P15374, A11I); test: Ub-Rhodamine (Ubiquitin rhodamine cleavage) assay; type: biochemical
T1 sequence (P15374 1-230 A11I): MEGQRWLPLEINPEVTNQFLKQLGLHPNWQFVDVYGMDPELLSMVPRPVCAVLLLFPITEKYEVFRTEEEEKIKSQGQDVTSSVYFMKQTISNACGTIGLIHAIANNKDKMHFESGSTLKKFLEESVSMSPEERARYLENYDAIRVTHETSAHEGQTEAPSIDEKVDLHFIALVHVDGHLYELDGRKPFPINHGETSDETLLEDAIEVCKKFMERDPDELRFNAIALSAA

UCHL3 A11I+L168F = molecular target: T2, UCHL3 A11I+L168F (Homo sapiens, UniProt P15374, A11I/L168F); test: Ub-Rhodamine (Ubiquitin rhodamine cleavage) assay; type: biochemical
T2 sequence (P15374 1-230 A11I/L168F): T1 sequence (P15374 1-230 A11I) with L168F

UCHL3 A11I,L168F = test: Intact protein mass spectrometry; type: binding, human; conditions: enzyme 3 µM; compound 10 µM; 1 h
From the text: Spectra were deconvoluted with ProMass (Enovatia).

UCHL1 [1] = molecular target: T3, UCHL1 (Homo sapiens, UniProt P09936); test: Jump-dilution assay; type: biochemical; conditions: 625 nM GK13S 2 h, then diluted 100-fold
T3 sequence (P09936 1-223): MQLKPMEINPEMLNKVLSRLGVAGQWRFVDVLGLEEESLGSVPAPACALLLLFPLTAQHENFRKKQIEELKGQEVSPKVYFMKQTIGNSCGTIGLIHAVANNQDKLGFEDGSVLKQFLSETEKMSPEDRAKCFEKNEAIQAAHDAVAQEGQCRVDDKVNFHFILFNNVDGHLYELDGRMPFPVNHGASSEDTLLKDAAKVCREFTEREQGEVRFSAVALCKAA
Protocol: Reactions were performed in similar 384 plates as above in a final volume of 20 µL. […] Parts of this solution were diluted at 1:50 at different time points with buffer H. All samples were then diluted 1:2 with 100 nM Ub-Rho (buffer H, final concentration in well 50 nM) and fluorescence was recorded as described above.

DUBs in HEK293 lysate = test: Activity-based protein profiling in the lysate with Ub-VS competition; type: binding, human; conditions: 1 µM, 1 h
Protocol: Cells (4 × 10^6) were seeded in 10 cm dishes and grown to 90% confluency. The medium was aspirated, cells were washed with ice-cold PBS, treated with 600 µL ABP lysis buffer (1% (v/v) IGEPAL, 50 mM Tris, 150 mM NaCl, 5% glycerol, pH 8, cOmplete protease inhibitor cocktail), and incubated on ice for 15 min. The lysed cells were scrapped off the dish, cleared by centrifugation, and the protein concentration was determined via a Bradford assay. […] Each compound was diluted to a 2x concentration in PBS buffer from a 10 mM stock in DMSO (final concentration: 1 µM). Then each compound dilution or a DMSO dilution was mixed with cell lysate and incubated for one hour at room temperature. […] Samples were resolved by SDS-PAGE using a 4–12% Bis-Tris gel (Invitrogen, NuPAGE) with MES SDS running buffer for 50 min at 180 V. Fluorescence was read out using the Alexa564 (λex/em 520–545/577–613 nm, for TAMRA) and Alexa680 (λex/em 650–675/700–730 nm, for the PageRuler Prestained NIR Protein Ladder (Thermo Scientific)) channels on a ChemiDoc MP Imaging System (Bio-Rad).

HEK293 cells [2] = test: Cellular activity-based protein profiling (in-gel fluorescence); type: cell-based, human; conditions: 0.1 and 1 µM; 24 h
Protocol: Cells (7 × 10^5) were seeded in six-well plates and cultivated for 48 h. Cells were then incubated in fresh DMEM supplemented with compound or DMSO for 24 h. The cells were washed with ice-cold PBS and harvested in 200 µL ABP lysis buffer as described above. […] Samples were separated by SDS-PAGE and analyzed for fluorescent protein-compound conjugates as described above.

HEK293 cells [3] = test: Cell growth and viability assay (confluency, propidium iodide); type: cell-based, human; conditions: up to 5 µM, up to 72 h
Protocol: (§1) HEK293 cells (5 × 10^3/well) or U-87 MG cells (5.5 × 10^3/well) were seeded into 96-well dishes. The following day cells were treated with the compounds at varying concentrations and propidium iodide at 20 µg/mL. The plates were immediately transferred to the Incucyte S3. Bright-field and red fluorescent images were automatically captured at 1 or 2 h intervals for 72 h with 10x magnification. The confluency of cells and the number of PI-positive cells was determined using the Incucyte masking program.

U-87 MG cells = test: as above; type: cell-based, human; conditions: up to 5 µM, up to 72 h
Protocol: as §1

[4] = test system: monoubiquitin in U-87 MG cells; test: Quantification of monoubiquitin levels; type: cell-based, human; conditions: 48 h; for monoubiquitin intensity normalized to DMSO (= 1): independent experiments
Protocol: U-87 MG cells (5 × 10^5/well) were seeded in six-well plates and cultivated for 8 h. Cells were transfected with siRNA as described above. On the next day, cells were cultured in fresh media supplemented with either compounds (final conc. 5 µM) or DMSO, where indicated, for a further 48 h. The media was changed every 24 h to a fresh medium supplemented with compounds (final conc. 5 µM) or DMSO. […] Monoubiquitin band intensities were first normalized to α-tubulin or total protein (Fast Green FCF, TCI) and subsequently normalized to the intensities of monoubiquitin bands in the sample treated with DMSO or siScr (where no DMSO was used) which was set to “1”.

UCHL1 [5] = molecular target: T3, UCHL1; test: Identification of probe-labeled proteins with mass spectrometry (pulldown enrichment); conditions: HEK293 cells, 24 h
Protocol: Cells were cultured, treated with a compound, and lysed as described above. The cell lysate was diluted to a protein concentration of 2 mg/mL with ABP lysis buffer. 1 µL of each click reagent (see above) were added to each sample, followed by an incubation period of one hour at room temperature with protection from light. The sample volume was adjusted to 1000 µL with PBS and 30 µL of a NeutrAvidin (Thermo Fisher) bead slurry (prewashed 3x with PBS) were added to each sample. The samples were incubated for one hour to overnight on a rotator at 15 rpm at 4 °C. Beads were pelleted by centrifugation, the supernatant was discarded, and the beads were washed six times (1x with ½x lysis buffer, followed by five washes with PBS). After removing the washing solution completely, the beads were subjected to reduction with dithiothreitol (1 mM), alkylation with chloroacetamide (5 mM) and on-bead digestion with first LysC (Serva Biotech, 1 h, 37 °C), followed by trypsin (Sigma Aldrich, 1 h, overnight). Tryptic peptides were desalted with C18 StageTips and analyzed by nano-HPLC-MS/MS.
An Ultimate 3000 RSLC nano-HPLC system and a Hybrid-Orbitrap mass spectrometer (Q Exactive Plus) equipped with a nano-spray source (Thermo Fisher Scientific) was used. The protein fragments were enriched on a C18 PepMap 100 column (5 μm, 100 Å, 300 μm ID * 5 mm, Dionex) using 0.1% TFA, at a flow rate of 30 μL/min, for 5 min and separated on a C18 PepMap 100 column (3 μm, 100 Å, 75 μm ID × 50 cm) using a linear gradient (5–30% ACN/H2O + 0.1% formic acid over 90 min) with a flow rate of 300 nL/min. […] Signals in the mass range of m/z 300 to 1650 were acquired at a resolution of 70,000 for the full scan, followed by ten high-energy collision-dissociation (HCD) MS/MS scans of the most intense at least doubly charged ions at a resolution of 17,500. Proteins were relatively quantified by using MaxQuant[60] v.2.0.3.1, including the Andromeda search algorithm and searching the Homo sapiens reference proteome of the UniProt database. Briefly, an MS/MS ion search was performed for enzymatic trypsin cleavage, allowing two missed cleavages. Carbamidomethylation was set as a fixed protein modification, and oxidation of methionine and acetylation of the N-terminus were set as variable modifications. The mass accuracy was set to 20 parts per million (ppm) for the first search and to 4.5 ppm for the second search. The false discovery rates for peptide and protein identification were set to 0.01. Only proteins for which at least two peptides were quantified were chosen for further validation. Relative quantification of proteins was performed by using the label-free quantification algorithm implemented in MaxQuant. Statistical data analysis of pulldown samples was performed using Perseus[61] v.1.6.15.0, including proteins which were identified in at least four of the five biological replicates which were used per condition. Label-free quantification (LFQ) intensities were log-transformed (log2); replicate samples were grouped together. Pairwise comparisons of groups were performed separately. Missing values were imputed using small normally distributed values (width 0.3, downshift 1.8) and a two-sided t-test (s0 = 5, FDR = 0.001) was performed.

C#CCCCNC(=O)c1ccc(-n2cnc(NC(=O)[C@H]3CCN(C#N)C3)c2)cc1 [GK13S]
IC50 (UCHL3 A11I): 32 ± 7 µM | IC50 (UCHL3 A11I+L168F): 11 ± 2 µM | protein species observed after compound treatment (UCHL3 A11I,L168F): + 1x GK13S | reversibility of inhibition after jump dilution (UCHL1 [1]): inhibition was sustained | DUB engagement (Ub-VS competitive labeling) (DUBs in HEK293 lysate): Ubiquitin-probe competitive band of approx. 30 kDa | labeling of endogenous proteins in intact cells (HEK293 cells [2]): strong signal for a band of ~30 kDa | growth arrest and apoptosis (HEK293 cells [3]): neither GK13S nor GK16S showed growth arrest nor apoptosis | toxicity (cell growth and viability) (U-87 MG cells): nontoxic | levels of free monoubiquitin (western blot) ([4]; 5 µM): reduced | monoubiquitin intensity normalized to DMSO (= 1) ([4]; siSCr, 5 µM): 0.576 and 0.6744 and 0.83 and 0.6532 | monoubiquitin intensity normalized to DMSO (= 1) ([4]; siUCHL3, 5 µM): 0.757 and 0.6937 and 0.5404 and 0.5552 and 0.8593 and 0.6907 | change in log2 enrichment values of UCHL1, GK13S vs GK13R (UCHL1 [5]; 1 µM): 2 | change in log2 enrichment values of UCHL1, GK13S vs GK16S (UCHL1 [5]; 1 µM): 5 | difference in UCHL1 enrichment, GK13S vs GK13R (UCHL1 [5]; 1 µM): fourfold | difference in UCHL1 enrichment, GK13S vs GK16S (UCHL1 [5]; 1 µM): > 32 fold | enrichment factor of UCHL1 (log2, vs DMSO) (UCHL1 [5]; 1 µM): 8 and > 8 | enrichment of UCHL1 vs DMSO (UCHL1 [5]; 5 µM): ~ 3000 fold | logarithmic enrichment factor of UCHL1 (log2, vs DMSO) (UCHL1 [5]; 5 µM): 11.5
